Measured values: ChEMBL document CHEMBL1201862, “PubChem BioAssay data set” (2004)
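Method: 48-hour compound exposure of cells in 96-well plates, five concentrations, linear interpolation of endpoints. Abbreviation: GI50, concentration required for 50% inhibition of growth.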 The source made the active and inactive calls. Rule as the data show it: active = GI50 up to about 1.1 µM and inactive = higher.

How the values were obtained:
Assay in all cases: growth of human tumour cells (NCI), 48 h
786-0 = system: 786-0
A498 = system: A498
A549 = system: A549
ACHN = system: ACHN
BT-549 = system: BT-549
CAKI-1 = system: CAKI-1
CCRF-CEM = system: CCRF-CEM
COLO 205 = system: COLO 205
DU-145 = system: DU-145
EKVX = system: EKVX
HCC 2998 = system: HCC 2998
HCT-116 = system: HCT-116
HCT-15 = system: HCT-15
HL-60 = system: HL-60
HOP-62 = system: HOP-62
HOP-92 = system: HOP-92
HT-29 = system: HT-29
Hs-578T = system: Hs-578T
IGROV-1 = system: IGROV-1
K562 = system: K562
KM12 = system: KM12
LOX IMVI = system: LOX IMVI
M14 = system: M14
MCF7 = system: MCF7
MDA-MB-231 = system: MDA-MB-231
MDA-MB-435 = system: MDA-MB-435
MDA-N = system: MDA-N
MOLT-4 = system: MOLT-4
Malme-3M = system: Malme-3M
NCI-H226 = system: NCI-H226
NCI-H23 = system: NCI-H23
NCI-H460 = system: NCI-H460
NCI-H522 = system: NCI-H522
NCI/ADR-RES = system: NCI/ADR-RES
OVCAR-3 = system: OVCAR-3
OVCAR-4 = system: OVCAR-4
OVCAR-5 = system: OVCAR-5
OVCAR-8 = system: OVCAR-8
PC-3 = system: PC-3
RPMI-8226 = system: RPMI-8226
RXF 393 = system: RXF 393
SF-268 = system: SF-268
SF-295 = system: SF-295
SF-539 = system: SF-539
SK-MEL-28 = system: SK-MEL-28
SK-MEL-2 = system: SK-MEL-2
SK-MEL-5 = system: SK-MEL-5
SK-OV-3 = system: SK-OV-3
SN12C = system: SN12C
SNB-19 = system: SNB-19
SNB-75 = system: SNB-75
SR = system: SR
SW-620 = system: SW-620
TK-10 = system: TK-10
U-251 = system: U-251
UACC-257 = system: UACC-257
UACC-62 = system: UACC-62
UO-31 = system: UO-31
T47D = system: T47D

CCN(CC)c1ccc(/C=C/C(=O)c2cc(C(C)(C)C)c(O)c(C(C)(C)C)c2)cc1
GI50 (786-0): 14.2 µM (inactive)
GI50 (A498): 31.3 µM (inactive)
GI50 (A549): 19.6 µM (inactive)
GI50 (ACHN): > 42.6 µM (inactive)
GI50 (BT-549): 8.24 µM (inactive)
GI50 (CAKI-1): 5.14 µM (inactive)
GI50 (CCRF-CEM): 3.85 µM (inactive)
GI50 (COLO 205): 4.62 µM (inactive)
GI50 (DU-145): 29 µM (inactive)
GI50 (EKVX): 4.13 µM (inactive)
GI50 (HCC 2998): 16.3 µM (inactive)
GI50 (HCT-116): 3.21 µM (inactive)
GI50 (HCT-15): 21.1 µM
GI50 (HL-60): 3.37 µM (inactive)
GI50 (HOP-62): 27 µM (inactive)
GI50 (HOP-92): > 100 µM (inactive)
GI50 (HT-29): 2.71 µM (inactive)
GI50 (Hs-578T): 5.93 µM (inactive)
GI50 (IGROV-1): 64 µM (inactive)
GI50 (K562): 8.45 µM (inactive)
GI50 (KM12): 2.99 µM (inactive)
GI50 (LOX IMVI): 5.78 µM (inactive)
GI50 (M14): 21.2 µM (inactive)
GI50 (MCF7): 3.64 µM (inactive)
GI50 (MDA-MB-231): 9.2 µM (inactive)
GI50 (MDA-MB-435): 3.21 µM (inactive)
GI50 (MDA-N): 3.14 µM (inactive)
GI50 (MOLT-4): 4.49 µM (inactive)
GI50 (Malme-3M): > 100 µM (inactive)
GI50 (NCI-H226): 39.3 µM (inactive)
GI50 (NCI-H23): 9.77 µM (inactive)
GI50 (NCI-H460): 14.9 µM (inactive)
GI50 (NCI-H522): 3.07 µM (inactive)
GI50 (NCI/ADR-RES): 4.38 µM (inactive)
GI50 (OVCAR-3): 10.2 µM (inactive)
GI50 (OVCAR-4): 6.76 µM (inactive)
GI50 (OVCAR-5): 5.26 µM (inactive)
GI50 (OVCAR-8): 15.9 µM (inactive)
GI50 (PC-3): 9.18 µM (inactive)
GI50 (RPMI-8226): 4.94 µM (inactive)
GI50 (RXF 393): 2.7 µM (inactive)
GI50 (SF-268): 7.45 µM (inactive)
GI50 (SF-295): 2.6 µM (inactive)
GI50 (SF-539): 3.19 µM (inactive)
GI50 (SK-MEL-28): > 50.7 µM (inactive)
GI50 (SK-MEL-2): 6.76 µM (inactive)
GI50 (SK-MEL-5): 16.3 µM (inactive)
GI50 (SK-OV-3): 28.2 µM (inactive)
GI50 (SN12C): 27.4 µM (inactive)
GI50 (SNB-19): 38 µM (inactive)
GI50 (SNB-75): 4.9 µM (inactive)
GI50 (SR): 2.8 µM (inactive)
GI50 (SW-620): 4.84 µM (inactive)
GI50 (TK-10): 5.71 µM (inactive)
GI50 (U-251): 3.3 µM (inactive)
GI50 (UACC-257): 6.85 µM (inactive)
GI50 (UACC-62): 6.81 µM (inactive)
GI50 (UO-31): 17.6 µM (inactive)

COC(=O)N1CC(=O)C(C(=O)NC23CC4CC(CC(C4)C2)C3)C1 (stereo not given)
GI50 (786-0): 33.3 µM (inactive)
GI50 (A498): > 100 µM (inactive)
GI50 (A549): > 100 µM (inactive)
GI50 (ACHN): 74.3 µM (inactive)
GI50 (BT-549): 66.7 µM (inactive)
GI50 (CAKI-1): > 100 µM (inactive)
GI50 (CCRF-CEM): 42.5 µM (inactive)
GI50 (COLO 205): 62.1 µM (inactive)
GI50 (DU-145): 76.4 µM (inactive)
GI50 (HCC 2998): 37 µM (inactive)
GI50 (HCT-116): 64.6 µM (inactive)
GI50 (HCT-15): 39.2 µM
GI50 (HL-60): 32.1 µM (inactive)
GI50 (HOP-92): > 100 µM (inactive)
GI50 (HT-29): 78.9 µM (inactive)
GI50 (IGROV-1): > 100 µM (inactive)
GI50 (K562): 55.2 µM (inactive)
GI50 (KM12): 41.8 µM (inactive)
GI50 (M14): > 100 µM (inactive)
GI50 (MCF7): 45.3 µM (inactive)
GI50 (MDA-MB-231): 42.7 µM (inactive)
GI50 (MDA-MB-435): > 100 µM (inactive)
GI50 (MDA-N): > 100 µM (inactive)
GI50 (MOLT-4): 35.8 µM (inactive)
GI50 (Malme-3M): 78.7 µM (inactive)
GI50 (NCI-H226): > 100 µM (inactive)
GI50 (NCI-H23): > 100 µM (inactive)
GI50 (NCI-H460): 78.7 µM (inactive)
GI50 (NCI-H522): 49.3 µM (inactive)
GI50 (NCI/ADR-RES): 84.1 µM (inactive)
GI50 (OVCAR-3): > 100 µM (inactive)
GI50 (OVCAR-4): > 100 µM (inactive)
GI50 (OVCAR-5): > 100 µM (inactive)
GI50 (OVCAR-8): 73.1 µM (inactive)
GI50 (PC-3): 52 µM (inactive)
GI50 (RPMI-8226): 32.8 µM (inactive)
GI50 (RXF 393): 82 µM (inactive)
GI50 (SF-268): 37.7 µM (inactive)
GI50 (SF-295): 56.6 µM (inactive)
GI50 (SF-539): 72.9 µM (inactive)
GI50 (SK-MEL-28): 66.4 µM (inactive)
GI50 (SK-MEL-2): 77.3 µM (inactive)
GI50 (SK-MEL-5): 45.6 µM (inactive)
GI50 (SNB-19): > 100 µM (inactive)
GI50 (SR): 48.3 µM (inactive)
GI50 (SW-620): > 100 µM (inactive)
GI50 (T47D): 47.8 µM (inactive)
GI50 (TK-10): > 100 µM (inactive)
GI50 (U-251): 67.3 µM (inactive)
GI50 (UACC-257): > 100 µM (inactive)
GI50 (UACC-62): 69.7 µM (inactive)
GI50 (UO-31): > 100 µM (inactive)

CCOC(=O)CCCSCCCC(=O)CCCSCCCC(=O)OCC
GI50 (786-0): > 100 µM (inactive)
GI50 (A549): > 100 µM (inactive)
GI50 (BT-549): > 100 µM (inactive)
GI50 (CCRF-CEM): > 100 µM (inactive)
GI50 (COLO 205): > 100 µM (inactive)
GI50 (DU-145): > 100 µM (inactive)
GI50 (EKVX): > 100 µM (inactive)
GI50 (HCC 2998): > 100 µM (inactive)
GI50 (HCT-116): > 100 µM (inactive)
GI50 (HCT-15): > 100 µM
GI50 (HL-60): > 100 µM (inactive)
GI50 (HOP-62): > 100 µM (inactive)
GI50 (HOP-92): > 100 µM (inactive)
GI50 (HT-29): > 100 µM (inactive)
GI50 (IGROV-1): > 100 µM (inactive)
GI50 (K562): > 100 µM (inactive)
GI50 (KM12): > 100 µM (inactive)
GI50 (LOX IMVI): > 100 µM (inactive)
GI50 (M14): > 100 µM (inactive)
GI50 (MCF7): > 100 µM (inactive)
GI50 (MDA-MB-231): > 100 µM (inactive)
GI50 (MDA-MB-435): > 100 µM (inactive)
GI50 (MDA-N): > 100 µM (inactive)
GI50 (MOLT-4): > 100 µM (inactive)
GI50 (NCI-H23): > 100 µM (inactive)
GI50 (NCI-H460): > 100 µM (inactive)
GI50 (NCI-H522): > 100 µM (inactive)
GI50 (NCI/ADR-RES): > 100 µM (inactive)
GI50 (OVCAR-3): > 100 µM (inactive)
GI50 (OVCAR-4): > 100 µM (inactive)
GI50 (OVCAR-5): > 100 µM (inactive)
GI50 (OVCAR-8): > 100 µM (inactive)
GI50 (PC-3): > 100 µM (inactive)
GI50 (SF-268): > 100 µM (inactive)
GI50 (SF-295): > 100 µM (inactive)
GI50 (SF-539): > 100 µM (inactive)
GI50 (SK-MEL-28): > 100 µM (inactive)
GI50 (SK-MEL-5): > 100 µM (inactive)
GI50 (SK-OV-3): > 100 µM (inactive)
GI50 (SN12C): > 100 µM (inactive)
GI50 (SNB-19): > 100 µM (inactive)
GI50 (SNB-75): > 100 µM (inactive)
GI50 (SR): > 100 µM (inactive)
GI50 (SW-620): > 100 µM (inactive)
GI50 (T47D): > 100 µM (inactive)
GI50 (TK-10): > 100 µM (inactive)
GI50 (U-251): > 100 µM (inactive)
GI50 (UACC-257): > 100 µM (inactive)
GI50 (UACC-62): > 100 µM (inactive)
GI50 (UO-31): > 100 µM (inactive)
